Assay results as given in PubChem BioAssay (NCI).
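Grown in 96-well plates, cells were treated for 48 hours with each compound at five concentrations. Insufficient inhibition: endpoint recorded as highest concentration tested. At the TGI there is no net growth.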

Experiments:
Assay in all cases: NCI tumour cell line growth inhibition, 48 h
HCT-15 colon = tested on: HCT-15 colon
UO-31 renal = tested on: UO-31 renal
HOP-62 NSCLC = tested on: HOP-62 NSCLC
NCI-H23 lung = tested on: NCI-H23 lung
OVCAR-5 ovarian = tested on: OVCAR-5 ovarian
OVCAR-3 ovarian = tested on: OVCAR-3 ovarian
SN12C renal = tested on: SN12C renal
HT29 colon = tested on: HT29 colon
DU-145 prostate = tested on: DU-145 prostate
SF-539 CNS = tested on: SF-539 CNS
RPMI-8226 leukemia = tested on: RPMI-8226 leukemia
SNB-19 CNS = tested on: SNB-19 CNS
SK-MEL-2 melanoma = tested on: SK-MEL-2 melanoma
HL-60(TB) leukemia = tested on: HL-60(TB) leukemia
HOP-92 NSCLC = tested on: HOP-92 NSCLC
IGROV1 ovarian = tested on: IGROV1 ovarian
SK-OV-3 ovarian = tested on: SK-OV-3 ovarian
PC-3 prostate = tested on: PC-3 prostate
MDA-MB-231 breast = tested on: MDA-MB-231 breast
SK-MEL-28 melanoma = tested on: SK-MEL-28 melanoma
MOLT-4 leukemia = tested on: MOLT-4 leukemia
OVCAR-8 ovarian = tested on: OVCAR-8 ovarian
SW-620 colon = tested on: SW-620 colon
MALME-3M melanoma = tested on: MALME-3M melanoma
COLO 205 colon = tested on: COLO 205 colon
KM12 colon = tested on: KM12 colon
U251 CNS = tested on: U251 CNS
M14 melanoma = tested on: M14 melanoma
UACC-257 melanoma = tested on: UACC-257 melanoma
UACC-62 melanoma = tested on: UACC-62 melanoma
MDA-N = tested on: MDA-N
NCI-H460 lung = tested on: NCI-H460 lung
SF-295 CNS = tested on: SF-295 CNS
ACHN renal = tested on: ACHN renal
CAKI-1 renal = tested on: CAKI-1 renal
NCI-H226 lung = tested on: NCI-H226 lung
MDA-MB-435 = tested on: MDA-MB-435
HCT-116 colon = tested on: HCT-116 colon
SNB-75 CNS = tested on: SNB-75 CNS
SK-MEL-5 melanoma = tested on: SK-MEL-5 melanoma
SR leukemia = tested on: SR leukemia
SF-268 CNS = tested on: SF-268 CNS
LOX IMVI melanoma = tested on: LOX IMVI melanoma
TK-10 renal = tested on: TK-10 renal
MCF7 breast = tested on: MCF7 breast
786-0 renal = tested on: 786-0 renal
HCC-2998 colon = tested on: HCC-2998 colon
NCI/ADR-RES ovarian = tested on: NCI/ADR-RES ovarian
CCRF-CEM leukemia = tested on: CCRF-CEM leukemia
A549 NSCLC = tested on: A549 NSCLC
K-562 leukemia = tested on: K-562 leukemia
NCI-H522 lung = tested on: NCI-H522 lung
T-47D breast = tested on: T-47D breast
HS 578T breast = tested on: HS 578T breast
EKVX NSCLC = tested on: EKVX NSCLC
RXF 393 renal = tested on: RXF 393 renal
A498 renal = tested on: A498 renal
OVCAR-4 ovarian = tested on: OVCAR-4 ovarian

CC(NC(=O)c1ccc(OP(=O)(OCC2=CC(=O)c3ccccc3C2=O)N(C)CCCCCl)cc1)c1ccc(OCC2CCCCC2)c(C(N)=O)c1 (stereo not given)
TGI (HCT-15 colon): 24.7 µM
TGI (UO-31 renal): 21.9 µM
TGI (HOP-62 NSCLC): 32.9 µM
TGI (NCI-H23 lung): 10.2 µM
TGI (OVCAR-5 ovarian): 70.6 µM
TGI (OVCAR-3 ovarian): 17.4 µM
TGI (SN12C renal): 26.2 µM
TGI (HT29 colon): 31.2 µM
TGI (DU-145 prostate): 16.7 µM
TGI (SF-539 CNS): 28.5 µM
TGI (RPMI-8226 leukemia): 30.6 µM
TGI (SNB-19 CNS): 35.1 µM
TGI (SK-MEL-2 melanoma): 30.2 µM
TGI (HL-60(TB) leukemia): 41.1 µM
TGI (HOP-92 NSCLC): 19.6 µM
TGI (IGROV1 ovarian): 21.6 µM
TGI (SK-OV-3 ovarian): 48.8 µM
TGI (PC-3 prostate): 58.6 µM
TGI (MDA-MB-231 breast): 21.3 µM
TGI (SK-MEL-28 melanoma): 27.2 µM
TGI (MOLT-4 leukemia): 30 µM
TGI (OVCAR-8 ovarian): 29.6 µM
TGI (SW-620 colon): 38.3 µM
TGI (MALME-3M melanoma): 3.97 µM
TGI (COLO 205 colon): 20.6 µM
TGI (KM12 colon): 30.3 µM
TGI (U251 CNS): 22.3 µM
TGI (M14 melanoma): 13 µM
TGI (UACC-257 melanoma): 18.6 µM
TGI (UACC-62 melanoma): 21.4 µM
TGI (MDA-N): 13 µM
TGI (NCI-H460 lung): 22.9 µM
TGI (SF-295 CNS): 19.2 µM
TGI (ACHN renal): 29.2 µM
TGI (CAKI-1 renal): 35.5 µM
TGI (NCI-H226 lung): 24.2 µM
TGI (MDA-MB-435): 5.68 µM
TGI (HCT-116 colon): 27.5 µM
TGI (SNB-75 CNS): 19.5 µM
TGI (SK-MEL-5 melanoma): 2.02 µM
TGI (SR leukemia): 34.3 µM
TGI (SF-268 CNS): 26.2 µM
TGI (LOX IMVI melanoma): 17.6 µM
TGI (TK-10 renal): 61.7 µM
TGI (MCF7 breast): 24.9 µM
TGI (786-0 renal): 28.6 µM
TGI (HCC-2998 colon): 4.05 µM
TGI (NCI/ADR-RES ovarian): 32.5 µM
TGI (CCRF-CEM leukemia): 30.6 µM
TGI (A549 NSCLC): 5.6 µM
TGI (K-562 leukemia): 43.1 µM
TGI (NCI-H522 lung): 29 µM
TGI (T-47D breast): 10.5 µM
TGI (HS 578T breast): 21.7 µM

C=C1CCCCCCCCCCC1S(=O)c1ccccc1 (stereo not given)
TGI (HCT-15 colon): > 100 µM
TGI (UO-31 renal): 39.6 µM
TGI (HOP-62 NSCLC): > 100 µM
TGI (NCI-H23 lung): > 100 µM
TGI (OVCAR-5 ovarian): > 100 µM
TGI (OVCAR-3 ovarian): > 100 µM
TGI (SN12C renal): 55.4 µM
TGI (HT29 colon): > 100 µM
TGI (DU-145 prostate): > 100 µM
TGI (SF-539 CNS): 37.2 µM
TGI (RPMI-8226 leukemia): 54.4 µM
TGI (EKVX NSCLC): > 100 µM
TGI (SNB-19 CNS): > 100 µM
TGI (SK-MEL-2 melanoma): > 100 µM
TGI (HL-60(TB) leukemia): 39.2 µM
TGI (HOP-92 NSCLC): > 100 µM
TGI (IGROV1 ovarian): 33.4 µM
TGI (SK-OV-3 ovarian): 96.4 µM
TGI (PC-3 prostate): > 100 µM
TGI (RXF 393 renal): 64.5 µM
TGI (MDA-MB-231 breast): 75.3 µM
TGI (SK-MEL-28 melanoma): > 100 µM
TGI (MOLT-4 leukemia): 78.5 µM
TGI (MALME-3M melanoma): > 100 µM
TGI (COLO 205 colon): 57.3 µM
TGI (U251 CNS): 53.2 µM
TGI (M14 melanoma): 92.2 µM
TGI (UACC-257 melanoma): > 100 µM
TGI (A498 renal): > 100 µM
TGI (UACC-62 melanoma): > 100 µM
TGI (MDA-N): > 100 µM
TGI (OVCAR-4 ovarian): > 100 µM
TGI (NCI-H460 lung): > 100 µM
TGI (SF-295 CNS): > 100 µM
TGI (ACHN renal): > 100 µM
TGI (CAKI-1 renal): > 100 µM
TGI (NCI-H226 lung): > 100 µM
TGI (MDA-MB-435): 59.3 µM
TGI (HCT-116 colon): > 100 µM
TGI (SK-MEL-5 melanoma): > 100 µM
TGI (SR leukemia): 64.8 µM
TGI (SF-268 CNS): 95.8 µM
TGI (LOX IMVI melanoma): 91.3 µM
TGI (MCF7 breast): 65.5 µM
TGI (786-0 renal): 38.2 µM
TGI (HCC-2998 colon): > 100 µM
TGI (NCI/ADR-RES ovarian): > 100 µM
TGI (A549 NSCLC): > 100 µM
TGI (K-562 leukemia): 82.6 µM
TGI (T-47D breast): > 100 µM
TGI (HS 578T breast): > 100 µM
